From PubChem BioAssay AID489024 (Sanford-Burnham Center for Chemical Genomics, 2010)
Active and inactive are the calls of the source.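 Rule for the calls: active = compounds whose mean EC50, the dose giving half the maximal reporter activation, is at or below a set limit; inactive = the rest.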

Molecular target: CHO-CHOP luciferase reporter, UPR activation, luminescence
Test: CHOP reporter induction, apoptotic UPR branch – CHO-CHOP cells, luciferase luminescence, confirmation (AID 489024);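 note: compounds added alone to reporter cells with no tunicamycin stress co-treatment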

## Cc1cc(NC(=O)c2cc(-c3ccccn3)nc3ccc(Br)cc23)no1
  EC50: > 80 µM (inactive)

## O=C1/C(=C/c2ccc(N3CCOCC3)o2)SC(=Nc2ccccc2)N1CCc1c[nH]c2ccccc12
  EC50: 16.6 µM

## Cc1ccc(CN2CCN(/N=C/c3ccc(O)c(O)c3)CC2)cc1
  EC50: 3.64 µM

## Cc1cc(C(=O)Cn2ncc(Cl)c(Cl)c2=O)c(C)n1CC(F)(F)F
  EC50: 4.15 µM

## O=c1[nH]c(-c2ccc(-c3cccc(Cl)c3)o2)nc2ccccc12
  EC50: 12.9 µM

## CCNc1ccccc1CP(=O)(c1ccccc1)c1ccccc1O (centres undefined)
  EC50: 15 µM

## COC(=O)c1cc(=O)n(Cc2ccco2)c(=Nc2ccc(F)c(Cl)c2)s1
  EC50: 16.8 µM

## O=C1Nc2ccccc2/C1=C/C(=O)c1cccs1
  EC50: 14.4 µM

## O=C1NC(=S)NC(=O)C1=Cc1ccc(Br)s1
  EC50: > 80 µM (inactive)

## C/C(=N\NC(=O)c1ccc(Cl)c(Cl)c1)c1ccccn1
  EC50: 3.26 µM

## Cc1cc(C)n(-c2nc(NC(C)(C)C)nc(NC(C)(C)C)n2)n1
  EC50: > 80 µM (inactive)

## CCOc1cccc(C(=O)Nc2cccc(-c3nnc(-c4ccc(C)cc4)o3)c2)c1
  EC50: > 80 µM (inactive)

## S=C1SCN(Cc2ccco2)CN1Cc1ccco1
  EC50: 11.4 µM

## Cc1cccc(Cn2cc(/C=C/[N+](=O)[O-])c3ccccc32)c1
  EC50: 7.81 µM

## O=C(c1ccc(Cl)cc1)C(CN1CCCC1)c1ccccc1 (centres undefined)
  EC50: 14.3 µM

## Cc1cnc(NC(=O)c2cc(S(=O)(=O)N(C)C)ccc2N2CCCC2)s1
  EC50: 6.42 µM

## COc1ccccc1N1C(=O)C=C(Sc2nc(C)cc(C)n2)C1=O
  EC50: > 80 µM (inactive)

## CCCCCCCCCn1c2c(c(=N)c3c1CCC3)CCC2
  EC50: > 80 µM (inactive)

## CCOc1ccc2nc(SC3CC(=O)N(c4ccc(C)cc4)C3=O)sc2c1 (centres undefined)
  EC50: > 80 µM (inactive)

## O=C(Oc1c(CN2CCOCC2)cc(Cl)c2cccnc12)c1ccccc1F
  EC50: 18.2 µM

## C=CCNC(=S)N/N=C(\C)c1ccccn1
  EC50: 2.5 µM

## Nc1c(C(=O)Nc2ccc(S(=O)(=O)N3CCCC3)cc2)sc2nc3ccc(OC(F)(F)F)cc3cc12
  EC50: > 80 µM (inactive)

## O=C1C(Cl)=C(NC(=O)c2ccccc2)C(=O)C(Cl)=C1NC(=O)c1ccccc1
  EC50: > 80 µM (inactive)

## CCOC(=O)/C=c1\s/c(=C\c2ccc3cc(OC)ccc3c2)c(=O)n1CC(=O)NCC1CCCO1 (centres undefined)
  EC50: 10.7 µM

## COc1ccc(/C=C/C(=O)Oc2ccc(C)cc2)cc1
  EC50: inactive

## C=CCN=c1scc(C)n1/N=C/c1ccc(O)c(O)c1
  EC50: 3.01 µM

## COc1ccc(-c2oc(NC(=O)CCl)c(C#N)c2-c2ccc(OC)cc2)cc1
  EC50: 12.9 µM

## COc1ccccc1-c1cc(C(F)(F)F)nc(S(C)(=O)=O)n1
  EC50: 9.21 µM

## COC(=O)C1=C(C)N(c2ccc(C)c(C)c2)/C(=C/c2cccs2)C1=O
  EC50: > 80 µM (inactive)

## Cc1ccc(-c2nnc(-c3ccc(NC(=O)c4cccs4)cc3)o2)cc1
  EC50: 16 µM

## CC(C)c1cccc(-c2ccc3c(c2)S(=O)(=O)c2cccc(C(=O)NCc4ccccc4Cl)c2C3=O)c1
  EC50: 4.51 µM

## Cc1cccc(Nc2nc(-c3ccccn3)cs2)n1
  EC50: 10.8 µM

## Cc1ccnc(Nc2nc(-c3ccc(O)c(O)c3)cs2)c1
  EC50: 1.34 µM

## COc1ccc(/C=C/C(=O)c2ccc(C(=O)/C=C/c3ccc(OC)c(OC)c3)cc2)cc1OC
  EC50: > 80 µM (inactive)

## CCOC(=O)c1c(CSC(=N)N)n(-c2ccc(C)cc2)c2cc(Br)c(OC(C)=O)cc12
  EC50: > 80 µM (inactive)

## CC1(C)CC(=O)C(=Cc2cn(-c3ccccc3)nc2-c2ccc(Cl)cc2)C(=O)C1
  EC50: 6.07 µM

## Oc1c(CN2CCc3ccccc3C2)cc(Cl)c2cccnc12
  EC50: 12 µM

## Cc1ccc(C(=O)C(C(=O)/C=C/c2ccccc2)=C2SCCCS2)cc1
  EC50: 14.6 µM

## Cc1ccc(-n2nc3cc(C)c(NC(=S)NC(=O)/C=C/c4ccco4)cc3n2)cc1
  EC50: 16.2 µM

## COc1ccc(/C=C/C(=O)c2ccc([N+](=O)[O-])o2)cc1
  EC50: 6.65 µM

## Clc1ccc(-n2nnnc2Sc2ncnc3sccc23)cc1
  EC50: > 80 µM (inactive)

## COc1ccc2c(C(=O)CCl)c[nH]c2c1
  EC50: 6.36 µM

## COc1cc(/C=C(/C#N)c2nc3ccccc3[nH]2)ccc1OCC(=O)Nc1ccccc1C
  EC50: 3.65 µM

## COC(=O)[C@@H]1[C@@H](C#N)C2(c3ccccc3-c3ccccc32)N(c2ccc(Cl)cc2)N1C#N
  EC50: 13 µM

## S=C(Nc1ccccn1)c1ccccn1
  EC50: 10.4 µM

## O=C(Nc1ccc(O)c2c(=O)cc(-c3cccc(Cl)c3)oc12)c1ccccc1Cl
  EC50: inactive

## O=C(NCCc1ccc(F)cc1)c1coc(=O)c(Br)c1
  EC50: 9.53 µM

## FC(F)(F)c1nnc2c(Sc3ccc(Cl)cc3)nc3ccccc3n12
  EC50: 4.12 µM

## Cc1ccc(-c2nc(SCC(=O)Nc3cc(C)on3)c3c(=O)n(C)c(=O)n(C)c3n2)cc1
  EC50: > 80 µM (inactive)

## O=C(Nc1ccc(C(F)(F)F)cc1)c1cc(-c2cccnc2)nc2ccc(Br)cc12
  EC50: 8.66 µM

## CCOC(=O)c1cnc(-n2nc(C)cc2C)nc1Nc1ccc(N(C)C)cc1
  EC50: 16.7 µM

## CCOC(=O)c1sc(NC(=S)NC(=O)c2ccccc2)c(C(=O)OCC)c1C
  EC50: > 80 µM (inactive)

## Fc1ccc(NC(=S)Nc2nccs2)cc1
  EC50: inactive

## Cc1ccc(S/C=C\C(=O)c2ccccc2)cc1
  EC50: > 80 µM (inactive)

## Brc1ccc(-c2ccc(/C=N/Nc3nncc(-c4ccccc4)n3)o2)cc1
  EC50: 19 µM

## O=C(NCc1ccccc1Br)c1cccc2c1C(=O)c1ccc(-c3ccc(OC(F)(F)F)cc3)cc1S2(=O)=O
  EC50: 12.7 µM

## O=c1nc(Nc2cccc(Cl)c2)oc2cc(Cl)oc(=O)c12
  EC50: 11.5 µM

## Oc1c(Cl)cc(CN2CCCCC2)c2cccnc12
  EC50: 15.2 µM

## CN(C)CC(CCC(CN(C)C)C(O)(c1ccccc1)c1ccccc1)C(O)(c1ccccc1)c1ccccc1 (centres undefined)
  EC50: 7.9 µM

## CN1C(=O)NC(=O)/C(=C\C=C\c2ccccc2[N+](=O)[O-])C1=O
  EC50: 10.4 µM

## O=C(N/N=C(\c1ccccc1)c1cccnc1)c1cccc(F)c1
  EC50: 9.74 µM

## Oc1ccc(/C=N/Nc2ccc(C(F)(F)F)cn2)cc1O
  EC50: 5.89 µM

## O=C(C[C@H]1C[C@H](C(=O)N2CCCCC2)[C@@]2(CCc3ccccc3)c3[nH]c4ccc(Cl)cc4c3CCN2C1=O)NCCC1=CCCCC1
  EC50: inactive

## COC(=O)C1=C(C)N(c2ccc(C)c(C)c2)/C(=C/c2ccco2)C1=O
  EC50: 8.53 µM

## CCOC(=O)/C(=C\c1ccc(Cl)cc1)c1nc2sc(C)c(C)c2c(=O)[nH]1
  EC50: > 80 µM (inactive)

## COC(=O)c1ccc(-n2c(C)cc(C(=O)CCl)c2C)cc1
  EC50: 4.62 µM

## Nc1nc(CC(=O)CSc2ccc(Cl)cc2)nc(Nc2ccc(F)cc2)n1
  EC50: inactive

## CCc1cccc2sc(N3CCN(C(=O)c4ccc([N+](=O)[O-])o4)CC3)nc12
  EC50: 10.5 µM

## O=C(Nc1nc2c(F)cc(F)cc2s1)c1ccccn1
  EC50: 6.35 µM

## Cn1nc(C(F)(F)F)c(/C=N/OC(=O)c2ccccc2)c1SCc1ccccc1Cl
  EC50: inactive

## Cc1ccc(-c2cc(NC(=O)CCl)n(-c3ccccc3)n2)cc1
  EC50: 6.42 µM

## O=C(CCC(=O)Nc1ccc(Cl)cc1Cl)N/N=C/c1ccc([N+](=O)[O-])o1
  EC50: 12.9 µM

## S=C1SCN(Cc2ccccn2)CN1Cc1ccco1
  EC50: > 80 µM (inactive)

## CCOC(=O)c1c(C)oc2c1c(C(c1cccnc1)N1CCOCC1)c(O)c1ccccc12 (centres undefined)
  EC50: 16.8 µM

## Cc1cc(NC(=O)CCS(=O)(=O)c2nc(-c3ccccc3)cc(C(F)(F)F)n2)no1
  EC50: 7.4 µM

## CCn1cc(C(=O)NC(=S)Nc2sc3c(c2C(=O)OC)CCCCCC3)cn1
  EC50: inactive

## COc1ccc(N=c2oc3ccc(OC)cc3cc2-c2nc3ccccc3[nH]2)cc1
  EC50: 11.7 µM

## COc1cc(/C=C(/C#N)c2nc3ccccc3[nH]2)ccc1OCC(=O)Nc1ccccc1C(C)C
  EC50: 8.27 µM

## CC(=O)c1cccc(N=Cc2c(O)c3ccccc3oc2=O)c1
  EC50: 9.66 µM

## Cc1c(C(=O)c2cccc3ccccc23)c2cccc3c2n1[C@H](CN1CCOCC1)CO3
  EC50: 12.4 µM

## CCCC[C@@H](C)C[C@@H](C)C(=O)N(C)[C@@H](CC(C)C)C(=O)N[C@H](C(=O)N(C)[C@H](C(=O)N1C[C@@H](O)C[C@H]1C(=O)N1C(=O)C=C[C@@H]1C)C(C)C)C(C)OC(C)=O (some centres undefined)
  EC50: 10.4 µM

## O=C(N/N=C(\c1ccccc1)c1ccccn1)c1cccc([N+](=O)[O-])c1
  EC50: 7.44 µM

## Cn1c(SCC(=O)NCC2CCCO2)ncc(C(=O)Nc2ccc(Cl)cc2)c1=O (centres undefined)
  EC50: 16 µM

## O=C(/C(=C/c1ccc(Cl)cc1)c1nc2ccccc2[nH]1)c1cccs1
  EC50: 4.6 µM

## CCCN1C/C(=C/c2ccc3c(c2)OCO3)C(=O)/C(=C/c2ccc3c(c2)OCO3)C1
  EC50: 7.78 µM

## CCc1ccc2c(c1)C1(NN=C(c3ccccc3)S1)C(=O)N2 (centres undefined)
  EC50: 3.36 µM

## COc1cc(CNc2ccc3[nH]c(=O)[nH]c3c2)cc(Br)c1OCc1ccccc1F
  EC50: > 80 µM (inactive)

## C/C(=C\c1ccc(N(C)C)cc1)[N+](=O)[O-]
  EC50: 9.76 µM

## Cc1ccc(C(C)C)c(OCc2ccc(C(=O)N/N=C/c3ccc(O)c(O)c3)cc2)c1
  EC50: > 80 µM (inactive)

## Oc1c(CN2CCN(c3ccc(F)cc3)CC2)cc(Cl)c2cccnc12
  EC50: 14 µM

## C=C1C(=O)C=C[C@]2(C)C[C@@H]3OC(=O)[C@](C)(O)[C@H]3C[C@@H]12
  EC50: 12.7 µM

## CSc1nnc(NC(=O)c2nc(S(=O)(=O)Cc3cccc(C)c3)ncc2Cl)s1
  EC50: > 80 µM (inactive)

## N#Cc1ccc(N/N=C/c2cn(-c3ccccc3)nc2-c2ccccc2)c([N+](=O)[O-])c1
  EC50: > 80 µM (inactive)

## CCSC1(SCC)N=C(N)C2(C#N)C(c3ccc(OC)c(OC)c3OC)C12C#N (centres undefined)
  EC50: 14.7 µM

## CC(=O)c1ccc(NC(=O)COC(=O)c2ccccc2N=Nc2ccc(N(C)C)cc2)cc1
  EC50: > 80 µM (inactive)

## C=CCSC(=C(C#N)C#N)c1cc2c([nH]1)CCCC2
  EC50: > 80 µM (inactive)

## CC(C)N=c1scc(-c2ccco2)n1/N=C/c1ccc(O)c(O)c1
  EC50: 1.1 µM

## Cc1ccc(C[n+]2c(-c3ccc(C)cc3)cc(-c3ccc(C)cc3)cc2-c2ccc(C)cc2)cc1
  EC50: 4.67 µM

## CCOC(=O)Cc1csc(/N=C/c2c(O)n(-c3ccc(C)c(C)c3)c(=O)c3ccccc23)n1
  EC50: 10.7 µM

## O=S(=O)(c1ccc(Cl)cc1)c1snnc1-c1ccccc1
  EC50: 11.1 µM

## CCOc1cc(/C=N/Nc2cc(C)nc(-n3nc(C)cc3C)n2)ccc1O
  EC50: 13.6 µM

## CCOC(=O)C(=Cc1ccc(F)cc1)C(=O)OCC
  EC50: > 80 µM (inactive)

## CCOC(=O)C(=Cc1ccc(-n2ccnc2)cc1)C(=O)OCC
  EC50: 9.57 µM

## Cc1cc(-n2c(C)cc(C(=O)CCl)c2C)no1
  EC50: 7.75 µM
